± gives the expanded uncertainty stated by the source.
Legend:
[1] = for mass density: 298.1 K, 101.33 kPa, Liquid, Vibrating tube method; for surface tension liquid-gas: 298.15 K, Drop volume
[2] = xn = mol fraction of the nth substance listed; conditions: 298.15 K; for surface tension liquid-gas: Drop volume; for mass density: 101 kPa, Liquid, Vibrating tube method

CCn1cc[n+](C)c1.F[B-](F)(F)F [1-ethyl-3-methylimidazolium tetrafluoroborate]
[1]
Conditions	mass density [kg/m3]	surface tension liquid-gas [mN/m]
–	1279.9 ± 1.5	52.81 ± 0.57

CCCCCCCC[n+]1ccn(C)c1.F[B-](F)(F)F [1-methyl-3-octylimidazolium tetrafluoroborate]
[1]
Conditions	mass density [kg/m3]	surface tension liquid-gas [mN/m]
–	1104.2 ± 0.4	32.84 ± 0.23

CCCCn1cc[n+](C)c1.F[B-](F)(F)F [1-butyl-3-methylimidazolium tetrafluoroborate]
[1]
Conditions	mass density [kg/m3]	surface tension liquid-gas [mN/m]
–	1201.2 ± 0.5	45.33 ± 0.3

CCO [ethanol] + CCn1cc[n+](C)c1.F[B-](F)(F)F
[2], x2 = 0
Conditions	mass density [kg/m3]	surface tension liquid-gas [mN/m]
–	785.8 ± 0.2	52.81 ± 0.26

CCCCn1cc[n+](C)c1.F[B-](F)(F)F [1-butyl-3-methylimidazolium tetrafluoroborate] + O
[2]
Conditions	mass density [kg/m3]	surface tension liquid-gas [mN/m]
x1 = 0.0001	–	61.54 ± 0.25
x1 = 0.0003	–	61.5 ± 0.25
x1 = 0.0017	1000.9 ± 0.2	–
x1 = 0.0035	1004.8 ± 0.3	–
x1 = 0.0039	–	57.3 ± 0.24
x1 = 0.0052	1008.5 ± 0.3	–
x1 = 0.0058	–	54.34 ± 0.23
x1 = 0.0069	1011.9 ± 0.3	–
x1 = 0.0074	–	51.77 ± 0.22
x1 = 0.0092	1014.4 ± 0.3	–
x1 = 0.0094	–	50.63 ± 0.22
x1 = 0.0197	1030.6 ± 0.3	–
x1 = 0.02	–	46.93 ± 0.21
x1 = 0.0335	1048.2 ± 0.3	–
x1 = 0.0404	–	46.02 ± 0.21
x1 = 0.0498	–	46.27 ± 0.21
x1 = 0.0502	1065.2 ± 0.3	–
x1 = 0.0586	–	46.25 ± 0.21
x1 = 0.0698	–	46.14 ± 0.21
x1 = 0.0736	1084.1 ± 0.3	–
x1 = 0.0799	–	45.99 ± 0.21
x1 = 0.0998	–	46.19 ± 0.22
x1 = 0.1013	–	45.63 ± 0.21
x1 = 0.1072	1103.9 ± 0.3	–
x1 = 0.1081	–	46.23 ± 0.21
x1 = 0.139	–	46.22 ± 0.22
x1 = 0.1398	1118 ± 0.3	–
x1 = 0.1621	–	46.16 ± 0.22
x1 = 0.1688	1128 ± 0.3	–
x1 = 0.1788	–	46.06 ± 0.22
x1 = 0.1818	–	45.91 ± 0.22
x1 = 0.2128	–	45.62 ± 0.22
x1 = 0.252	1148.2 ± 0.3	–
x1 = 0.2963	1156.2 ± 0.3	46.25 ± 0.23
x1 = 0.3734	1166.9 ± 0.3	–
x1 = 0.4067	1169.4 ± 0.3	46.32 ± 0.24
x1 = 0.4408	1171.9 ± 0.3	–
x1 = 0.4946	1177.9 ± 0.4	–
x1 = 0.5252	1178.7 ± 0.4	–
x1 = 0.5304	1181.5 ± 0.4	46.02 ± 0.25
x1 = 0.5723	1181.8 ± 0.4	–
x1 = 0.6	1185 ± 0.4	–
x1 = 0.6326	1187.9 ± 0.4	45.81 ± 0.26
x1 = 0.6922	1189.4 ± 0.4	–
x1 = 0.7065	1191.1 ± 0.4	45.68 ± 0.27
x1 = 0.8003	–	45.52 ± 0.28
x1 = 0.8167	1193.7 ± 0.4	–
x1 = 0.9005	1197.8 ± 0.5	45.41 ± 0.29
x1 = 1	1201.2 ± 0.5	45.33 ± 0.3

CCn1cc[n+](C)c1.F[B-](F)(F)F [1-ethyl-3-methylimidazolium tetrafluoroborate] + O
[2]
Conditions	mass density [kg/m3]	surface tension liquid-gas [mN/m]
x1 = 0.004	1005.5 ± 0.3	67.38 ± 0.27
x1 = 0.0077	1013.2 ± 0.3	65 ± 0.26
x1 = 0.0123	1021.8 ± 0.3	62.87 ± 0.26
x1 = 0.0132	1023.4 ± 0.3	61.91 ± 0.25
x1 = 0.0288	1046.4 ± 0.3	58.15 ± 0.25
x1 = 0.0483	1068.2 ± 0.3	57.31 ± 0.25
x1 = 0.0709	1088.6 ± 0.3	55.92 ± 0.25
x1 = 0.102	1111.7 ± 0.3	55.24 ± 0.25
x1 = 0.1418	1135.8 ± 0.3	54.43 ± 0.26
x1 = 0.2141	1169.1 ± 0.4	53.8 ± 0.27
x1 = 0.2191	1171 ± 0.4	–
x1 = 0.2894	–	54.15 ± 0.3
x1 = 0.3118	1200.3 ± 0.4	–
x1 = 0.4011	–	54.01 ± 0.33
x1 = 0.4551	1230 ± 0.5	–
x1 = 0.4987	1236.7 ± 0.6	–
x1 = 0.5074	–	53.88 ± 0.37
x1 = 0.5923	1248.6 ± 0.7	–
x1 = 0.6018	–	53.73 ± 0.41
x1 = 0.691	1258.5 ± 0.8	–
x1 = 0.7534	–	53.51 ± 0.47
x1 = 0.7774	1265.5 ± 1	–
x1 = 0.9015	–	53.25 ± 0.53
x1 = 1	1279.9 ± 1.5	53.04 ± 0.57

CCCCCCn1cc[n+](C)c1.F[B-](F)(F)F [1-hexyl-3-methylimidazolium tetrafluoroborate]
[1]
Conditions	mass density [kg/m3]	surface tension liquid-gas [mN/m]
–	1145.4 ± 0.4	37.33 ± 0.26

CCCCn1cc[n+](C)c1.F[B-](F)(F)F [1-butyl-3-methylimidazolium tetrafluoroborate] + CCO
[2]
Conditions	mass density [kg/m3]	surface tension liquid-gas [mN/m]
x1 = 0.0986	897.2 ± 0.3	22.83 ± 0.15
x1 = 0.2002	977.4 ± 0.3	23.28 ± 0.16
x1 = 0.2553	1010.7 ± 0.3	24.65 ± 0.16
x1 = 0.2881	1027.9 ± 0.3	–
x1 = 0.3284	1046.8 ± 0.3	25.53 ± 0.17
x1 = 0.3999	1075.5 ± 0.4	26.55 ± 0.18
x1 = 0.4202	1082.7 ± 0.4	27.2 ± 0.18
x1 = 0.5024	1108.6 ± 0.4	28.87 ± 0.19
x1 = 0.6082	1135.9 ± 0.4	31.32 ± 0.21
x1 = 0.7107	1157.4 ± 0.4	34.9 ± 0.23
x1 = 0.804	1173.7 ± 0.4	37.99 ± 0.25
x1 = 0.9059	1188.8 ± 0.5	41.54 ± 0.27
x1 = 1	1201.2 ± 0.5	45.33 ± 0.3

CCO [ethanol]
[1]
Conditions	mass density [kg/m3]	surface tension liquid-gas [mN/m]
–	785.8 ± 0.2	22 ± 0.15

CCCCCCn1cc[n+](C)c1.F[B-](F)(F)F [1-hexyl-3-methylimidazolium tetrafluoroborate] + O
[2]
Conditions	mass density [kg/m3]	surface tension liquid-gas [mN/m]
x1 = 0.3032	1115.8 ± 0.3	37.93 ± 0.2
x1 = 0.4059	1123.9 ± 0.3	37.79 ± 0.21
x1 = 0.5058	1129.2 ± 0.3	37.65 ± 0.21
x1 = 0.6061	1133.8 ± 0.3	37.52 ± 0.22
x1 = 0.7057	1137.4 ± 0.4	37.4 ± 0.23
x1 = 0.803	1140.3 ± 0.4	37.35 ± 0.24
x1 = 0.9002	1142.6 ± 0.4	37.33 ± 0.25
x1 = 1	1145.5 ± 0.4	37.33 ± 0.26

O [water]
Conditions	surface tension liquid-gas [mN/m]
[1]	71.35 ± 0.28

CCn1cc[n+](C)c1.F[B-](F)(F)F [1-ethyl-3-methylimidazolium tetrafluoroborate] + CCO
[2]
Conditions	mass density [kg/m3]	surface tension liquid-gas [mN/m]
x1 = 0.6087	1190.3 ± 0.7	33.58 ± 0.29
x1 = 0.7056	1225.5 ± 0.9	37.37 ± 0.34
x1 = 0.8072	1241.6 ± 1.1	42.77 ± 0.41
x1 = 0.9054	1262.6 ± 1.3	47.41 ± 0.49
x1 = 1	1279.9 ± 1.5	53.04 ± 0.57

O [water] + CCCCn1cc[n+](C)c1.F[B-](F)(F)F
Conditions	surface tension liquid-gas [mN/m]
[2], x2 = 0	71.35 ± 0.28

CCCCCCn1cc[n+](C)c1.F[B-](F)(F)F [1-hexyl-3-methylimidazolium tetrafluoroborate] + CCO
[2]
Conditions	mass density [kg/m3]	surface tension liquid-gas [mN/m]
x1 = 0.098	893.9 ± 0.3	23.11 ± 0.15
x1 = 0.1998	964.6 ± 0.3	24.21 ± 0.16
x1 = 0.3	1011.9 ± 0.3	25.62 ± 0.17
x1 = 0.3991	1046.1 ± 0.3	27.09 ± 0.18
x1 = 0.5079	1073.7 ± 0.3	28.82 ± 0.19
x1 = 0.6123	1095.5 ± 0.4	30.74 ± 0.2
x1 = 0.702	1108.8 ± 0.4	32.47 ± 0.22
x1 = 0.803	1123.9 ± 0.4	34.22 ± 0.23
x1 = 0.9	1134.7 ± 0.4	35.75 ± 0.24
x1 = 1	1145.5 ± 0.4	37.33 ± 0.26

O [water] + CCn1cc[n+](C)c1.F[B-](F)(F)F
Conditions	surface tension liquid-gas [mN/m]
[2], x2 = 0	71.35 ± 0.28

CCCCCCCC[n+]1ccn(C)c1.F[B-](F)(F)F [1-methyl-3-octylimidazolium tetrafluoroborate] + CCO
[2]
Conditions	mass density [kg/m3]	surface tension liquid-gas [mN/m]
x1 = 0.1012	893 ± 0.3	23.33 ± 0.15
x1 = 0.2034	957.9 ± 0.3	24.7 ± 0.16
x1 = 0.3	996.6 ± 0.3	25.99 ± 0.17
x1 = 0.4096	1026.4 ± 0.3	27.28 ± 0.18
x1 = 0.5125	1047.8 ± 0.3	27.9 ± 0.19
x1 = 0.6156	1065.2 ± 0.3	28.88 ± 0.19
x1 = 0.7207	1079.3 ± 0.4	29.9 ± 0.2
x1 = 0.815	1088.8 ± 0.4	30.86 ± 0.21
x1 = 0.9014	1095.6 ± 0.4	31.84 ± 0.22
x1 = 1	1104.2 ± 0.4	32.82 ± 0.23
